The values that follow come from PMC6858350, “A common mechanism allows selective targeting of GluN2B subunit-containing N-methyl-D-aspartate receptors” (Communications Biology, 2019).

Assay [1] concerns the target GluN1-1a/GluN2B NMDAR (wildtype) (Rattus norvegicus, UniProt P35439+Q00960). In kind it is cell-based. To be noted: for IC50 / p (slope of the dose-response curve) / A2 ± SE (maximum inhibition from dose-response curve): TEVC; for IC50: holding potential −70 mV, 10 µM glycine and 10 µM (S)-glutamate, read-out: IC50 ± SE; for p (slope of the dose-response curve) / A2 ± SE (maximum inhibition from dose-response curve): −70 mV; for A2 ± SE (maximum inhibition from dose-response curve): flexible A2; for IC50 shift compared to rac-1: wildtype GluN1-1a/GluN2B, IC50 increase relative to rac-1; for A2 (maximum inhibition), set as identical with rac-1: due to non-saturating inhibition A2 was fixed, not fitted; for inhibition at 10 µM: read-out: ion current inhibition % ± SEM, GluN2B.

Assay [2] has as its system NMDA receptor-dependent EPSCs in CA1 pyramidal neurons. The experiment in a line: whole cell patch-clamp of evoked NMDAR-dependent EPSCs in hippocampal slices. In kind it is cell-based, C57BL/6J mice. The settings on record: n = 5; for EPSC amplitude after washout, % of the initial baseline (SEM): washout of compound.
The target of assay [3] is T1, GluN1-1a Y109S/GluN2B WT (Rattus norvegicus, UniProt P35439+Q00960, Y109S). To be noted: GluN1-1a Y109S; for A2 ± SE: flexible A2.
The target in assay [4] is T2, GluN1-1a F113S/GluN2B WT (Rattus norvegicus, UniProt P35439+Q00960, F113S). To be noted: GluN1-1a F113S; for A2 ± SE: flexible A2.
Assay [5] deals with T3, GluN1-1a S132A/GluN2B WT (Rattus norvegicus, UniProt P35439+Q00960, S132A). The settings on record: GluN1-1a S132A; for A2 ± SE: flexible A2.
For assay [6], the target named is T4, GluN1-1a L135N/GluN2B WT (Rattus norvegicus, UniProt P35439+Q00960, L135N). To be noted: GluN1-1a L135N; for A2 ± SE: flexible A2.
In assay [7] the target is T5, GluN1-1a WT/GluN2B Q110A (Rattus norvegicus, UniProt P35439+Q00960, Q110A). To be noted: GluN2B Q110A; for A2 ± SE: flexible A2.
Assay [8] has as its target T6, GluN1-1a WT/GluN2B I111A (Rattus norvegicus, UniProt P35439+Q00960, I111A). To be noted: GluN2B I111A; for A2 ± SE: flexible A2.
Assay [9] concerns the target T7, GluN1-1a WT/GluN2B F114A (Rattus norvegicus, UniProt P35439+Q00960, F114A). To be noted: GluN2B F114A; for A2, fixed-to-wildtype (*): maximum inhibition fixed to wildtype value.
The target in assay [10] is T8, GluN1-1a WT/GluN2B F176A (Rattus norvegicus, UniProt P35439+Q00960, F176A). To be noted: GluN2B F176A; for A2, fixed-to-wildtype (*): maximum inhibition fixed to wildtype value.
In assay [11] the target is T9, GluN1-1a WT/GluN2B F176Y (Rattus norvegicus, UniProt P35439+Q00960, F176Y). The settings on record: GluN2B F176Y; for A2, fixed-to-wildtype (*): maximum inhibition fixed to wildtype value.
In assay [12] the target is T10, GluN1-1a WT/GluN2B E236A (Rattus norvegicus, UniProt P35439+Q00960, E236A). The settings on record: GluN2B E236A; for A2 ± SE: flexible A2.
The target of assay [13] is T1, GluN1-1a Y109S/GluN2B WT. Put plainly: cell-based.
Assay [14] concerns the target T2, GluN1-1a F113S/GluN2B WT. Put plainly: cell-based.
The target of assay [15] is T3, GluN1-1a S132A/GluN2B WT. Put plainly: cell-based.
The target of assay [16] is T4, GluN1-1a L135N/GluN2B WT. Put plainly: cell-based.
Assay [17] concerns the target T5, GluN1-1a WT/GluN2B Q110A. Put plainly: cell-based.
Assay [18] has as its target T6, GluN1-1a WT/GluN2B I111A. The experiment in a line: cell-based.
Assay [19] deals with T7, GluN1-1a WT/GluN2B F114A. Put plainly: cell-based.
For assay [20], the target named is T8, GluN1-1a WT/GluN2B F176A. Put plainly: cell-based.
Assay [21] deals with T9, GluN1-1a WT/GluN2B F176Y. Put plainly: cell-based.
Assay [22] addresses T10, GluN1-1a WT/GluN2B E236A. The experiment in a line: cell-based.
In the next assay the target is GluN1-1a/GluN2A NMDAR (Rattus norvegicus, UniProt P35439+Q00959). The experiment in a line: cell-based. To be noted: read-out: ion current inhibition % ± SEM, GluN2A.
In a further assay the target is GluN1-1a/GluN2C NMDAR (Rattus norvegicus, UniProt P35439+Q00961). The experiment in a line: cell-based. To be noted: read-out: ion current inhibition % ± SEM, GluN2C.
Another assay has as its target GluN1-1a/GluN2D NMDAR (Rattus norvegicus, UniProt P35439+Q62645). The experiment in a line: cell-based. The settings on record: read-out: ion current inhibition % ± SEM, GluN2D.

Marks after values point to notes of the source that are not given here.

T8 sequence (Q00960 27-1482 F176A, other chains not shown): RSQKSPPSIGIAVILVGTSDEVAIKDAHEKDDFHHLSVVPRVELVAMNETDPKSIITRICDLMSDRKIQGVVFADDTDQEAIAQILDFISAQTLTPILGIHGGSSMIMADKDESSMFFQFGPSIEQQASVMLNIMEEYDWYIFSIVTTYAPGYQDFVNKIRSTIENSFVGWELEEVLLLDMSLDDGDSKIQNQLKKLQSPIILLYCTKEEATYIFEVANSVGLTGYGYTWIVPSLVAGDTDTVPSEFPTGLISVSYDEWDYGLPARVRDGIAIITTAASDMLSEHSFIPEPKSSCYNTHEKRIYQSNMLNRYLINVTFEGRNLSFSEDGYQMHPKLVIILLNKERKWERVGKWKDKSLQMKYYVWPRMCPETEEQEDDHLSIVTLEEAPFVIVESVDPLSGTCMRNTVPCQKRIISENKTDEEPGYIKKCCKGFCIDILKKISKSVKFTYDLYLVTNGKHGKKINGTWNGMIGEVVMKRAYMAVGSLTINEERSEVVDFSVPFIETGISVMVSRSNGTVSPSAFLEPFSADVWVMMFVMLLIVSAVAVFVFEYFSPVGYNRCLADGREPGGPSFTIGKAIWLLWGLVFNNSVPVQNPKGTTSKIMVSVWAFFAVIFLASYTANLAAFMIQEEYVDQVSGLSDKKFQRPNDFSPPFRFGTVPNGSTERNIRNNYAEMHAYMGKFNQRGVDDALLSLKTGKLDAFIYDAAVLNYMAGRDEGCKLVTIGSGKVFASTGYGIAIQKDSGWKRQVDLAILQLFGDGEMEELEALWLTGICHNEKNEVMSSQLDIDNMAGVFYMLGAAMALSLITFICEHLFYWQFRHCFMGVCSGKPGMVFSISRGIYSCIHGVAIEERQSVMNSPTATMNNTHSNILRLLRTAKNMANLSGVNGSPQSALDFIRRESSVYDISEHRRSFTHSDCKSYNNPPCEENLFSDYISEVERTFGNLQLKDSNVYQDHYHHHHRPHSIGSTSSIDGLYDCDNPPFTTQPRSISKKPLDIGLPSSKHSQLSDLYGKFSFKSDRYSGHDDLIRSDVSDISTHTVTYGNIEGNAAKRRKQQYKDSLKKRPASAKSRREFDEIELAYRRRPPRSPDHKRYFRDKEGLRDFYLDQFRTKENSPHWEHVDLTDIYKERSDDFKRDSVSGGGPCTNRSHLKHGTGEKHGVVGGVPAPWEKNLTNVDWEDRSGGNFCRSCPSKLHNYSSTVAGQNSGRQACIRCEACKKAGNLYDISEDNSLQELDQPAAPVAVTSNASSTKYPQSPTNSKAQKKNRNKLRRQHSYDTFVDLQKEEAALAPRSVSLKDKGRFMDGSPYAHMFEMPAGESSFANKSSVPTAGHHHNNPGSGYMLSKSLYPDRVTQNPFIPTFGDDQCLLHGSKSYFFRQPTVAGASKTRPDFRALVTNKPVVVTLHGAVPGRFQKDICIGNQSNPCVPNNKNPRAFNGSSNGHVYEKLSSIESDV
T7 sequence (Q00960 27-1482 F114A, other chains not shown): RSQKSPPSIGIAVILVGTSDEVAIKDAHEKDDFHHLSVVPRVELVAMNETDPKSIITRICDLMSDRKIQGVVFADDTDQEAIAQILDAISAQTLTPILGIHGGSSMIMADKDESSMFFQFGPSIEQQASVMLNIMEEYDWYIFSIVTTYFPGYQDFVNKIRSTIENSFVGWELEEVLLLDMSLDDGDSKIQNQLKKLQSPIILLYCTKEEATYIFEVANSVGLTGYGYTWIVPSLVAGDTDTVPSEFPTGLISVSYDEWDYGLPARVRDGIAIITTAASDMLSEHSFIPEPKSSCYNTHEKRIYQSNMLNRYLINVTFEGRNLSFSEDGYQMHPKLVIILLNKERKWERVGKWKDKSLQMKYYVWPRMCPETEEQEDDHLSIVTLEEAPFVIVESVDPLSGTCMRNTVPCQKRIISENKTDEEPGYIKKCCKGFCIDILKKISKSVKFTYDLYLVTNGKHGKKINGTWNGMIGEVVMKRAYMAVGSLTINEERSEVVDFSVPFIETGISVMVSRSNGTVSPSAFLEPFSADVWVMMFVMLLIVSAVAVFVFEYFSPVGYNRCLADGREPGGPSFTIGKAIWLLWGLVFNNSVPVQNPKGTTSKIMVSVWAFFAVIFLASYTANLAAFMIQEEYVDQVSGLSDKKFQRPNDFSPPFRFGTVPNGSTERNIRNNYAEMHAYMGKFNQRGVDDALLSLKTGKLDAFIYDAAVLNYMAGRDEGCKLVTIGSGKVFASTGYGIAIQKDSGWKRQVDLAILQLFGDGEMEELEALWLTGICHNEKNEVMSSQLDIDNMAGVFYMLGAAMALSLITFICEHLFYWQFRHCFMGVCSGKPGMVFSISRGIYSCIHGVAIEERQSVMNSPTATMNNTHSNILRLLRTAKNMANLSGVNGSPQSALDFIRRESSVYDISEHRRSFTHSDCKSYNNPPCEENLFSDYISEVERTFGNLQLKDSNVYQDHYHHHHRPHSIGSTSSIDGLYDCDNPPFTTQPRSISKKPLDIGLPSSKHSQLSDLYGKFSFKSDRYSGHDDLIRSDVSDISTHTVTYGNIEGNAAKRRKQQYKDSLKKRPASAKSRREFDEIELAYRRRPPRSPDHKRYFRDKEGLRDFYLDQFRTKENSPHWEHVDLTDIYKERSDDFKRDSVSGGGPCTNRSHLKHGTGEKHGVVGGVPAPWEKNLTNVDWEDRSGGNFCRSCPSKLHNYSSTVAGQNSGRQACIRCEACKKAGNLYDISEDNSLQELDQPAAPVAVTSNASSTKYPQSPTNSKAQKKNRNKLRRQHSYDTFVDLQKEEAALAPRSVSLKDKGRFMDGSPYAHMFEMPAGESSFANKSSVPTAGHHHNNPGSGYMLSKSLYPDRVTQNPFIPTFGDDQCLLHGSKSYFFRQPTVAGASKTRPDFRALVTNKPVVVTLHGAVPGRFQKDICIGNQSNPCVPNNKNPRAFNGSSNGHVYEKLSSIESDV
T5 sequence (Q00960 27-1482 Q110A, other chains not shown): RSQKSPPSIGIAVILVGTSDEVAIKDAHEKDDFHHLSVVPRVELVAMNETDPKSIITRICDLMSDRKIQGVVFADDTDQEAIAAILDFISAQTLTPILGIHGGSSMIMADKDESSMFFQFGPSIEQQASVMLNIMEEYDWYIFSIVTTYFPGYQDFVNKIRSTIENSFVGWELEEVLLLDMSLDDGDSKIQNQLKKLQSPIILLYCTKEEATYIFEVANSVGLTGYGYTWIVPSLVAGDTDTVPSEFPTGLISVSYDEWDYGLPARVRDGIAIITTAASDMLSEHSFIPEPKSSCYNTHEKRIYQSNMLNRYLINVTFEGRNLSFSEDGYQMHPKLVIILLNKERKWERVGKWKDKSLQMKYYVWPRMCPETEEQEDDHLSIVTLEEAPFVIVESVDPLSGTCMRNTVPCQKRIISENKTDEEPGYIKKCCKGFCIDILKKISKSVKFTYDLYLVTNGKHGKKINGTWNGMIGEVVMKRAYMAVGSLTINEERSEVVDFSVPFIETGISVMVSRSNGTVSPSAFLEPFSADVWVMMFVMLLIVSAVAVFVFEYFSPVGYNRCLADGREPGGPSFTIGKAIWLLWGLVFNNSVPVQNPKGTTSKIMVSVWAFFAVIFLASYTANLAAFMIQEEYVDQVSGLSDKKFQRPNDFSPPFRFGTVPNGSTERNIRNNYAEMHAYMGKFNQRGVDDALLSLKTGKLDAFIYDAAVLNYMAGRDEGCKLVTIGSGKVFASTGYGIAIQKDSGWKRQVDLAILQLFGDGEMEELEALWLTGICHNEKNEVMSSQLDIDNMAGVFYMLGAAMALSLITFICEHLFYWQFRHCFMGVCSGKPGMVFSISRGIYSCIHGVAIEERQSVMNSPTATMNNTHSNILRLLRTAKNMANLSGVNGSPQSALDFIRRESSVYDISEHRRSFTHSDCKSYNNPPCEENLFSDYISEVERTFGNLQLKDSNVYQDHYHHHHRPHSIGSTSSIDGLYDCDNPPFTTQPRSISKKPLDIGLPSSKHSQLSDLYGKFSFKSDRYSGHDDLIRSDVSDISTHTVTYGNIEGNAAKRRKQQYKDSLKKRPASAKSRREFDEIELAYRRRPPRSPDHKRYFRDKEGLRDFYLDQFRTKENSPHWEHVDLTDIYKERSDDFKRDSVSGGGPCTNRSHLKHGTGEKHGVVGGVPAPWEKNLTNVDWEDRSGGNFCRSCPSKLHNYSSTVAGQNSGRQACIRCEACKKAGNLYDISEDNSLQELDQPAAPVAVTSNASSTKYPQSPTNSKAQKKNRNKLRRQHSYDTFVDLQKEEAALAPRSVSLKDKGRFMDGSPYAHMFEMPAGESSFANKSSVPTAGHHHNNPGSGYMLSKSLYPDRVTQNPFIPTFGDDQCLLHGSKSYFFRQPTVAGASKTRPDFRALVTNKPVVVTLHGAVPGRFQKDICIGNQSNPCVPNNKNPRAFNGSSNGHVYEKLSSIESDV

For `Oc1ccc2c(c1)CCN(CCCCc1ccccc1)CC2` [compound 3], in assay [1] (wildtype), the 50% inhibitory concentration (IC50) came out at 3.37 ± 0.926 µM, the “p (slope of the dose-response curve)” value was determined as 0.93 and the “A2 ± SE (maximum inhibition from dose-response curve)” value is listed as 92 ± 8%. Further, the “IC50 shift compared to rac-1” value in assay [1] was determined as 36 fold.
For `COc1ccc2c(c1)CCN(CCCCc1ccccc1)CC2O` (stereo not drawn) [compound 4] the same measures were 1.3 ± 0.483 µM, 0.70, 100 ± 9% and 14 fold.
As for `c1ccc(CCCCN2CCc3ccccc3CC2)cc1` [compound 5], the “Inhibition (% ± SEM) of ion flux” value in assay [1] (compound concentration 30 µM, wildtype) is “almost inactive”. Further, in assay [1] (compound concentration 30 µM, wildtype, read-out: Inhibition (% ± SEM) of ion flux), the inhibition at 30 µM is 9 ± 2%.
As to `Oc1ccc2c(c1)CCN([C@H]1CC[C@H](c3ccccc3)CC1)CC2O` (stereo partly drawn) [compound 6], in assay [1] (wildtype), the concentration for half-maximal inhibition (IC50) stood at 2.63 ± 0.296 µM and the “p (slope of the dose-response curve)” value was found to be 0.70. The “A2 (maximum inhibition), set as identical with rac-1” value in assay [1] is recorded as 93^d %.
Regarding `Oc1ccc2c(c1)CCN([C@H]1CC[C@@H](c3ccccc3)CC1)CC2O` (stereo partly drawn) [compound 7], in assay [1] (wildtype), the IC50 turned out to be 7.21 ± 1.77 µM and the “p (slope of the dose-response curve)” value is given as 0.62. In addition, the “A2 (maximum inhibition), set as identical with rac-1” value in assay [1] was 93^d %.
Take `Oc1ccc2c(c1)CCN(CCCCc1ccccc1)C[C@@H]2O` [compound (R)-1]: the 50% inhibitory concentration (IC50) stood at 0.053 ± 0.003 µM in [1] (wildtype); 0.02 ± 0.002 µM against GluN1-1a Y109S/GluN2B WT [13]; 0.117 ± 0.048 µM against GluN1-1a F113S/GluN2B WT [14]; 0.106 ± 0.014 µM at GluN1-1a S132A/GluN2B WT [15]; 0.293 ± 0.074 µM against GluN1-1a L135N/GluN2B WT [16]; 0.393 ± 0.024 µM against GluN1-1a WT/GluN2B Q110A [17]. Moreover, the IC50 against GluN1-1a WT/GluN2B I111A [18] turned out to be 0.137 ± 0.031 µM; on GluN1-1a WT/GluN2B F114A [19], 4.08 ± 0.423 µM; against GluN1-1a WT/GluN2B F176A [20] it was 105 ± 41 µM; against GluN1-1a WT/GluN2B F176Y [21], 0.107 ± 0.02 µM; on GluN1-1a WT/GluN2B E236A [22], 0.194 ± 0.03 µM. Further, the “p (slope of the dose-response curve)” value in assay [1] (wildtype) is given as 1.11. Moreover, the “A2 ± SE (maximum inhibition from dose-response curve)” value in assay [1] (wildtype) is 93 ± 1%. The inhibition at 10 µM in [1] is 95 ± 1%; at GluN1-1a/GluN2A NMDAR, 4 ± 1%; on GluN1-1a/GluN2C NMDAR it was 8 ± 1%; at GluN1-1a/GluN2D NMDAR it was 18 ± 3%. Besides, the “EPSC amplitude, % of the initial baseline (SEM)” value in assay [2] (2 µM compound) came out at 60.2 ± 2.8%; in assay [2] (7 µM compound), 13.8 ± 1.4%. For the same molecule, in assay [2], the “EPSC amplitude after washout, % of the initial baseline (SEM)” value was 30.9 ± 3.6%. Moreover, the “p (slope)” value on GluN1-1a Y109S/GluN2B WT [3] is 1.42; on GluN1-1a F113S/GluN2B WT [4], 0.50; at GluN1-1a L135N/GluN2B WT [6], 0.66; at GluN1-1a WT/GluN2B Q110A [7], 2.18; on GluN1-1a WT/GluN2B I111A [8], 0.92; on GluN1-1a WT/GluN2B F114A [9] it was 1.35. The “p (slope)” value on GluN1-1a WT/GluN2B F176A [10] is given as 0.40; on GluN1-1a WT/GluN2B F176Y [11], 0.82; on GluN1-1a WT/GluN2B E236A [12], 1.32. Moreover, the “A2 ± SE” value at GluN1-1a Y109S/GluN2B WT [3] came out at 92 ± 2%; on GluN1-1a F113S/GluN2B WT [4], 77 ± 5%; at GluN1-1a S132A/GluN2B WT [5] it was 92 ± 2%; on GluN1-1a L135N/GluN2B WT [6], 72 ± 3%; on GluN1-1a WT/GluN2B Q110A [7], 91 ± 1%; at GluN1-1a WT/GluN2B I111A [8] it was 66 ± 3%. On GluN1-1a WT/GluN2B E236A [12], the “A2 ± SE” value came out at 85 ± 1%. The “A2, fixed-to-wildtype (*)” value on GluN1-1a WT/GluN2B F114A [9], at GluN1-1a WT/GluN2B F176A [10] and on GluN1-1a WT/GluN2B F176Y [11] was 93% throughout.
As to `CC(C(O)c1ccc(O)cc1)N1CCC(Cc2ccccc2)CC1` (stereo not drawn) [ifenprodil, reference compound], the “p (slope of the dose-response curve)” value in [1] (wildtype) is listed as 0.97. The “A2 ± SE (maximum inhibition from dose-response curve)” value in assay [1] (wildtype) came out at 94 ± 2%. Further, the inhibition at 10 µM in [1] is 91 ± 1%; on GluN1-1a/GluN2A NMDAR it was 5 ± 1%; at GluN1-1a/GluN2C NMDAR, 9 ± 1%; at GluN1-1a/GluN2D NMDAR it was 24 ± 4%. For the same molecule, the “EPSC amplitude, % of the initial baseline (SEM)” value stood at 74.4 ± 8.9% in assay [2] (1 µM compound) and 22.7 ± 4.7% in assay [2] (6 µM compound). Besides, the “EPSC amplitude after washout, % of the initial baseline (SEM)” value in assay [2] came to 31.9 ± 5%. Besides, the “p (slope)” value was 0.88 on GluN1-1a Y109S/GluN2B WT [3]; 1.09 on GluN1-1a F113S/GluN2B WT [4]; 0.79 on GluN1-1a S132A/GluN2B WT [5]; 0.99 at GluN1-1a L135N/GluN2B WT [6]; 0.64 at GluN1-1a WT/GluN2B Q110A [7]; 0.90 at GluN1-1a WT/GluN2B I111A [8]. For the same molecule, the “p (slope)” value is on record as 0.63 on GluN1-1a WT/GluN2B F114A [9], 0.87 at GluN1-1a WT/GluN2B F176A [10], 0.57 at GluN1-1a WT/GluN2B F176Y [11] and 1.18 at GluN1-1a WT/GluN2B E236A [12]. In addition, the “A2 ± SE” value worked out at 74 ± 2% on GluN1-1a Y109S/GluN2B WT [3]; 72 ± 3% at GluN1-1a F113S/GluN2B WT [4]; 89 ± 3% at GluN1-1a S132A/GluN2B WT [5]; 76 ± 3% on GluN1-1a L135N/GluN2B WT [6]; 98 ± 5% on GluN1-1a WT/GluN2B Q110A [7]; 68 ± 7% on GluN1-1a WT/GluN2B I111A [8]. At GluN1-1a WT/GluN2B E236A [12], the “A2 ± SE” value amounted to 88 ± 5%. Besides, the “A2, fixed-to-wildtype (*)” value at GluN1-1a WT/GluN2B F114A [9], on GluN1-1a WT/GluN2B F176A [10] and at GluN1-1a WT/GluN2B F176Y [11] was 94% in each case.
